{"source": "patent US8097650B2", "about": "“Method of treating a condition associated with phosphorylation of TASK-1” (The Trustees of Columbia University In The City of New York, priority 2005, dated 2012)", "key": {"[1]": {"tested_on": "murine TASK-1", "experiment": "TASK-1 current expressed in CHO cells (whole-cell ramp clamp)", "type": "cell-based, mouse", "outline": "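CHO cells transiently expressing murine TASK-1, with GFP or CD8 used to identify transfected cells, were studied 48 h after transfection. Whole-cell ramp-clamp recording at room temperature in Tyrode's pH 7.4 with a K-aspartate pipette solution. Records were corrected for a −9.8 mV junction potential and given as mean±SEM.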"}, "[2]": {"tested_on": "TASK-1", "experiment": "C-PAF-sensitive TASK-1 current in mouse ventricular myocytes dialyzed with PKCε peptides", "type": "cell-based", "details": "modified Tyrode's (high K+), scrambled peptide in pipette", "description": "Mouse ventricular myocytes were isolated using a retrograde coronary perfusion method previously published (Kuznetsov V et al. (1995) Circ Res 76: 40-52). All the experiments were carried out according to the guidelines issued by the IACUC of Columbia University. Adult mice 2 or 3 months old, were anaesthetized with a xylazine and ketamine mix and heparinized, the heart was quickly removed and the ascending aorta was connected to the outlet of a Langendorff column and perfused with 20-25 ml of a buffer solution (37° C.) containing (mM):NaCl, 112; KCl, 5.4; NaHCO3, 4.2; MgCl2, 1.6; HEPES, 20; glucose, 5.4; NaH2PO4, 1.7; taurine, 10; L-glutamine, 4.1; MEM amino acids solution, 2%; MEM vitamin solution, 1%; adjusted to pH 7.4, and equilibrated with 100% O2. Next, the heart was perfused with an enzyme solution containing collagenase (0.2 mg/ml; Worthington Type II) and trypsin (0.04 mg/ml) at 35° C. for 10-12 min. After this perfusion, the atria were removed and the ventricles minced and transferred to a 50 ml flask with an enzyme solution containing collagenase (0.45 mg/ml), trypsin (0.08 mg/ml), Ca^2+ (0.75 mM) and bovine serum albumin (BSA; 4.8 mg/ml). The flask was shaken vigorously for 5-10 min at 32° C. before the supernatant was removed and the cells were collected by centrifugation, this operation was repeated two or three times and additional disaggregated cells were collected. After centrifugation, the myocytes were resuspended in the buffer solution containing Ca^2+ (0.75 mM) and BSA and stored at room temperature until use. Rod-shaped, Ca^2+-tolerant myocytes, obtained with this procedure, were used within 6 h of dissociation. Measurements were performed only on quiescent myocytes with clear striations\nThe myocyte suspension or the coverslip with CHO cells was placed into a perfusion chamber, mounted on the stage of an inverted microscope. Unless otherwise indicated, CHO cells were superfused at room temperature with standard external Tyrode's buffer, containing (mM): NaCl, 140; KCl, 5.4; CaCl2, 1; MgCl2, 1; HEPES, 5; glucose, 10; adjusted to pH 7.4. Recordings were begun after the current reached a stable baseline (usually 3 to 4 min after initial cell rupture). In myocytes, TASK-1 current is small and exists in the presence of numerous larger K^+ currents. […] Membrane potential and current were measured in the whole cell configuration using borosilicate glass pipettes with a tip resistance between […] and filled with a pipette solution containing (mM): aspartic acid, 130; KOH, 146; NaCl, 10; CaCl2, 2; EGTA, 5; HEPES, 10; MGATP, 2; pH 7.2. […] Myocytes treated with the peptides were monitored continuously beginning immediately after rupture to detect the occurrence of any arrhythmias during dialysis of the peptide. […]"}}, "data": [{"smiles": "CCCCCCCCCCCCCCCCOC[C@H](COP(=O)([O-])OCC[N+](C)(C)C)OC(=O)NC", "note": "[C-PAF, carbamyl-platelet-activating factor]", "values": [{"measurement": "TASK-1 current density in the presence of drug", "setting": "[1]; +30 mV, C-PAF 185 nM or PMA 100 nM, no peptide", "result": "60.2±14.3", "unit": "pA/pF"}, {"measurement": "inhibition of TASK-1 current", "setting": "[1]; +30 mV, PMA 100 nM (n=17), C-PAF 185 nM (n=20)", "result": "12.1±1.0", "unit": "%"}, {"measurement": "time for decrease in TASK-1 current to reach steady state", "setting": "[1]; C-PAF 185 nM", "result": "≤ 2", "unit": "min"}, {"measurement": "decrease in the mean current density", "setting": "[1]; C-PAF 185 nM, +30 mV, n=9", "result": 12, "unit": "%"}, {"measurement": "effect on expressed TASK-1 current", "setting": "[1]; C-PAF 185 nM, Example 1", "result": "reduced"}, {"measurement": "TASK-1 current density after drug", "setting": "[1]; PKCε-inhibitor peptide 100 nM in pipette, C-PAF 185 nM or PMA 100 nM", "result": "25.4±12.4", "unit": "pA/pF"}, {"measurement": "I-V relation after washout, deviation from control value", "setting": "[1]; after washout of C-PAF 185 nM", "result": "≤ 5", "unit": "%"}, {"measurement": "C-PAF inhibition of TASK-1 current", "setting": "[1]; modified Tyrode's, elevated K+", "result": "10.2±1.8", "unit": "%"}, {"measurement": "C-PAF-induced inhibition of TASK-1", "setting": "[1]; scrambled peptide in pipette", "result": "8.4±1.5", "unit": "%"}, {"measurement": "reversal potential of C-PAF-sensitive current", "setting": "[2]", "result": "−26.1±1.9", "unit": "mV"}]}]}
